Test results reported in patent publication US20080039321A1, “Plant Growth Regulation” (priority 2004, published 2008).

Tested on: wheat (Triticum aestivum, variety "TRISO")
Experiment: Root growth assay, seed treatment, wheat
Type: in vivo
Settings: Root Growth of 100 is set as the standard, 16 (±2) days post treatment
Text: Plant roots are a highly proliferative tissue that allows an easy accessible, cheap and short term screening method for plant growth regulators. The results obtained can easily be transferred to the overall effects on a plant of plant growth regulators identified by such a system. By using this root assay one is enabled to determine the effect of a seed treatment to root growth and/or germination and/or changes in habitat of germinated plants in order to identify the possible use as a yield enhancer. Two seeds of wheat (Triticum aestivum, variety “TRISO”) or 1 seed of maize (Zea mays, variety “LORENZO”) per hole in a plastic tray which contains an architecture of 8×13 holes were placed on compost soil covered with sand. These seeds were treated with 100 μl/hole, which creates an application volume of approx. 1200 l/ha, of a compound solution at active ingredient rates equivalent to 100, 10 and 1 g a.i./ha of each compound using an robotic application system (Lizzy Spray Robotics). Six replicates in a row of each compound and concentration were done. The outer rim of the above defined plastic tray was untreated to avoid false negative effects and the middle row (No. 7) was used as untreated control. The treated seeds were allowed to dry for approx. 4 hours and subsequently covered with sand and watered. The trays were stored in climate chambers with 14 hours lighting at a temperature of 24° C. (±2) at daytime and 16° C. (±2) at night and relative humidity (rH) of 60% and daily watered. Assessments were done 16 (±2) days post treatment by counting the germinated plants and assessing the phytotoxicity symptoms and percentage. In addition, the roots were washed out and the shoots were cut directly above the seed and the wet roots were placed on dry paper towels for approximately 30 minutes and weighted afterwards. This procedure provides a similar grade of moisture to the roots so that a comparison of the weights is possible. […]

Nc1nc(OCC23CC4CC(CC(C4)C2)C3)c2nc[nH]c2n1 [Compound 1.1, O6-Adamantylmethyl-9H-purin-2-ylamine]
Root Growth (1 g a.i./ha): 84
Root Growth (10 g a.i./ha): 76
Root Growth (100 g a.i./ha): 141
